# Laboratory results from patent US20240109836A1, “NON-HALL[…] ANALOGS FOR TREATMENT OF NEUROLOGICAL AND PSYCHIATRIC DISORDERS” (The Trustees of Columbia University in the City of New York, priority 2021, published 2024).
# Experiments:
# [1] = Head twitch response assay; format: in vivo, Mice (C57bl/6J); settings: mice, 1, 3, 10, and 30 mg/kg s.c., vs positive control DOI
# Experimental: FIG. 2. […] N=5 mice in each cohort. […] Drugs were administered s.c.
# Mice (C57bl/6J, 8-15 weeks, 26-33 g) were weighed and moved to the testing room 30 minutes prior to experimentation. Mice were administered the experimental compound at a selected dose s.c. and then immediately moved to a new cage. Before beginning the test, mice were allowed to remain in this cage for a set amount of time ranging 0-10 min based on the compound. The head twitch assay was performed by a trained observer watching the mouse for a 10 min duration and recording the total number of head twitches observed.
# DOI was tested at the doses of 1, 3, 10 and 30 mg/kg (s.c., 5 mice per dose) and testing began immediately after administration of the compound. Ariadne (32), (29) and (38) were tested at the doses of 1, 3, 10, and 30 mg/kg (s.c., 5 mice per dose) and there was a 10 min interval between treatment and testing.
# [2] = biological target: 5-HT2A (Homo sapiens, UniProt P28223); experiment: IP1 agonist functional assay; format: cell-based
# 5-HT2A, sequence (P28223 whole entry): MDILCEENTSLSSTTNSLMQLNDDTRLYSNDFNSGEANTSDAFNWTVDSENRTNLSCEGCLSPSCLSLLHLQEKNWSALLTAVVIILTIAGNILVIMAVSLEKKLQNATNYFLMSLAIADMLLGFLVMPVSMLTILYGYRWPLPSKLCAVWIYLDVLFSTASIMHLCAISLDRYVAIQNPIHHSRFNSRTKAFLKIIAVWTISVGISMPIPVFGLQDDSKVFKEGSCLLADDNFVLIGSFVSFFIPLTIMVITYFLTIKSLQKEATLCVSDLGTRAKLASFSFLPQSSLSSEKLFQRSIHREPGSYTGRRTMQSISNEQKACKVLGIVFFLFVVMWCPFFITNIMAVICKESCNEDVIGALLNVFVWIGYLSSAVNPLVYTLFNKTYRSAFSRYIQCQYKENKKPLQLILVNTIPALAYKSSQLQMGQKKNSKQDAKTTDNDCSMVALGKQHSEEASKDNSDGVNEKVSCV
# [3] = biological target: 5-HT2B (Homo sapiens, UniProt P41595); experiment: IP1 agonist functional assay; format: cell-based
# 5-HT2B, sequence (P41595 whole entry): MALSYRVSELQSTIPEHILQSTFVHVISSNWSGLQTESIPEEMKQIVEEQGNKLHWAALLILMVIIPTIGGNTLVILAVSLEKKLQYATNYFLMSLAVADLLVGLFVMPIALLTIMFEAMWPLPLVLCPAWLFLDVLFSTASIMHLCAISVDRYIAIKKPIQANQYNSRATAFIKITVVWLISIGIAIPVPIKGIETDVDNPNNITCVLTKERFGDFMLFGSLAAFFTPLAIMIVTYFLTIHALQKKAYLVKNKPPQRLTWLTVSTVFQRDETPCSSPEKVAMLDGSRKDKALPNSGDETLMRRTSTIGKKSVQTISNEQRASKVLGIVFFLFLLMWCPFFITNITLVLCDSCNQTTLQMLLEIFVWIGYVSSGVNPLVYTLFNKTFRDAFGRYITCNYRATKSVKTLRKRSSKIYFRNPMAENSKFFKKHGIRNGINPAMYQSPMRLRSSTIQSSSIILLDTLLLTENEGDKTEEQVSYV
SMILES,psychedelic activity (number of head twitches in a 10-min period) [1],EC50 [2] [nM],"Selectivity (EC50 2B ÷ EC50 2A) ([2]; 5HT2A versus 5HT2B, relative agonism potencies) [x]",EC50 [3] [µM]
"CCC(N)Cc1cc(OC)c(C(F)(F)F)cc1OC (stereo not drawn) [compound 29, 1-(2,5-dimethoxy-4-(trifluoromethyl)phenyl) butan-2-amine]",lower psychedelic activity,34,174,5.9
"CCC(N)Cc1cc(OC)c(COC)cc1OC (stereo not drawn) [compound 38, 1-(2,5-dimethoxy-4-(methoxymethyl)phenyl)butan-2-amine]",lower psychedelic activity,3800,–,–
